Here are results for 23 compounds from patent publication US9024018B2, “3-substituted-8-substituted-3H-imidazo[5,1-d][1,2,3,5]tetrazin-4-one compounds and their use” (Pharminox Limited, priority 2009, dated 2015).

SMILES strings stand for the structures.

Holding throughout (format): cell-based
The test system of one experiment is SNB19M. The experiment is described as follows: MTT assay for 7-day toxicity, SNB19M glioma cells (stably transfected with MGMT, MGMT+). Particulars: Glioma cell, 168 h, 7 day MTT assay, glioma line SNB19M. The method, then: (§1) The cell culture techniques were carried out in a Class II microbiological safety cabinet which was swabbed with 70% IMS in distilled water before each use. Glioma cells were routinely cultured in Costar tissue culture flasks in RPMI 1640 liquid medium (containing 0.3 g/L L-glutamine and 2 g/L sodium bicarbonate) supplemented with 10% heat inactivated FBS (55-59° C.) for 1 hour to denature complement proteins which would otherwise evoke a cellular immune response resulting in cell lysis, 1% non-essential amino acids, 50 μg/mL gentamicin and 400 μg/mL G418 (vector selection reagent). Colorectal and melanoma cells were maintained in RPMI 1640 supplemented with 10% FBS. MRC-5 cells were cultured in EMEM+10% FBS, 1% pen/strep, 1% non-essential amino acids, 1% HEPES (1M) and 1% sodium bicarbonate.
(§2) Cells were grown at 37° C. in a humidified incubator in an atmosphere comprising 95% air/5% CO2. Cells were sub-cultured when growth exceeded approximately 80% confluence, normally twice weekly. The medium was aspirated from the flask and approximately 0.8 mL trypsin-EDTA 1× solution added. The cells were re-incubated at 37° C. until they had visibly detached from the flask. The cells were re-suspended in 5 mL medium and 0.5-1 mL was transferred to a new flask (25 cm^2) with 7 mL culture medium. The cells were further incubated at 37° C. To minimize phenotypic drift, cells were disposed of once they had been subcultured 30 times. New batches of cells were thawed rapidly in 37° C. water bath once taken from liquid nitrogen storage and re-suspended in 10 mL of culture medium in a 25 cm^2 flask. Cells were passaged twice to allow normal growth to resume prior to use in experiments.
(§3) Most test compounds, including temozolomide, were prepared as 100 mM stock solutions in DMSO and stored at −20° C. for not more than 6 months.
(§4) MTT Assay for 7-Day Toxicity Assay
(§5) This assay was first described in Mosmann, T., 1983, “Rapid colorimetric assay for cellular growth and survival: Application to proliferation and cytotoxicity assays”, Journal of Immunological Methods, Vol. 65, Nos. 1-2, pp. 55-63.
(§6) Glioma cell lines, SNB19 and U373, both stably transfected with MGMT (i.e., SNB19M and U373M) or their respective vector controls (i.e., SNB19V and U373V); colorectal carcinoma cell lines, HCT116, HT29, and DLD1; melanoma cell line, SKMEL-28; breast cell line, MCF-7; and normal human fetal lung fibroblast cell line, MRC-5; were used at 60-80% confluence, during the logarithmic phase of growth.
(§7) Following harvesting with trypsin/EDTA, cells in suspension were gently syringed through a 23 gauge needle to obtain a near-single cell suspension. Cells were then seeded into 96-well plates at the desired density in 180 μL culture medium if only one test compound was to be added, or in 160 μL if two test compounds were to be added in combination. Cells were allowed to attach overnight by incubation at 37° C. in 95% air/5% CO2. For the 7 day assay, the cell seeding densities for the different cell lines were as follows: SNB19V, SNB19M: 650 cells/well; U373V, U373M: 650 cells/well; SNB19VR, U373VR: 650 cells/well; HCT116, DLD-1, SKMEL-28, MRC-5, MCF-7: 400 cells/well.
(§8) The two peripheral lanes of each plate were used as blank wells (cell free) and filled with 200 μL of medium in order to minimise medium evaporation from the plate. A separate time zero (T0) plate was set up alongside other plates. Serial dilutions in tissue culture medium of a 100 mM stock of test compound were prepared immediately before each assay to ten times the final concentrations required. 20 μL was added to each well (200 μL total media per well) to achieve final concentrations of 0.5 μM, 1 μM, 5 μM, 10 μM, 50 μM, 100 μM, 500 μM, and 1000 μM. A minimum of four wells received the same test compound concentration. To control wells, including those in the T0 plate, 20 μL of medium was added. […]
In general terms: Formazan colour is commonly taken as a measure of viable cells.

For the next experiment, the system named is SNB19V. The experiment is described as follows: MTT assay for 7-day toxicity, SNB19V glioma cells (vector control, MGMT-). Particulars: Glioma cell, 168 h, 7 day MTT assay, glioma line SNB19V. The protocol: as §1, §2, §3, §4, §5, §6, §7, §8
For another experiment, the system named is U373V. Kind of experiment: MTT assay for 7-day toxicity, U373V glioma cells (vector control, MGMT-). Particulars: Glioma cell, 168 h, 7 day MTT assay, glioma line U373V. The protocol: as §1, §2, §3, §4, §5, §6, §7, §8
For the next experiment, the system named is U373M. The experiment is described as follows: MTT assay for 7-day toxicity, U373M glioma cells (stably transfected with MGMT, MGMT+). The settings on record: Glioma cell, 168 h, 7 day MTT assay, glioma line U373M. The method, then:
as §1, §2, §3, §4, §5, §6, §7, §8

For the compound `COCn1nnc2c(C(=O)Nc3ccccc3)ncn2c1=O` [LL-002, 3-(Methoxymethyl)-4-oxo-N-phenyl-3,4-dihydroimidazo[5,1-d][1,2,3,5]tetrazine-8-carboxamide], the GI50 in the experiment with SNB19M amounted to 43.8 µM; in the experiment on SNB19V it was 55.3 µM; in the experiment with U373V, 36.3 µM; with U373M, 52.3 µM.

On to `COCn1nnc2c(/C=C/c3ccc(C#N)cc3)ncn2c1=O` [MM-001, (E)-4-(2-(3-(Methoxymethyl)-4-oxo-3,4-dihydroimidazo[5,1-d][1,2,3,5]tetrazin-8-yl)vinyl)benzonitrile], for which the GI50 in the experiment with SNB19M was found to be 8.9 µM; in the experiment with SNB19V it was 9.1 µM; in the experiment on U373V, 7.7 µM; in the experiment on U373M, 8.8 µM.

On to `COCn1nnc2c(/C=C/c3cccs3)ncn2c1=O` [MM-004, (E)-3-(Methoxymethyl)-8-(2-(thiophen-2-yl)vinyl)imidazo[5,1-d][1,2,3,5]tetrazin-4(3H)-one], for which the GI50 in the experiment on SNB19M is 5.1 µM; with SNB19V, 4.5 µM; in the experiment with U373V it was 4.4 µM; in the experiment on U373M, 6.5 µM.

With `C#CCn1nnc2c(C(=N)NCC(=O)OC)ncn2c1=O` [SS-001, Methyl-2-(4-oxo-3-(prop-2-ynyl)-3,4-dihydroimidazo[5,1-d][1,2,3,5]tetrazine-8-carboximidamido)acetate hydroiodide], the GI50 in the experiment on SNB19M was found to be 52.7 µM; with SNB19V, 59 µM; in the experiment on U373V it was 51.2 µM; in the experiment on U373M, 55.1 µM.

`Cn1nnc2c(C(N)=O)ncn2c1=O` [TMZ, temozolomide, reference compound]: the GI50 came to 526 µM with SNB19M, 45.6 µM with SNB19V, 72.9 µM in the experiment on U373V and 395 µM in the experiment on U373M.

For the compound `C#CCn1nnc2c(C(N)=S)ncn2c1=O` [TT-001, 4-oxo-3-(prop-2-ynyl)-3,4-dihydroimidazo[5,1-d][1,2,3,5]tetrazine-8-carbothioamide], the GI50 in the experiment with SNB19M came out at 54.7 µM; with SNB19V, 63.2 µM; with U373V it was 42.3 µM; with U373M, 53.4 µM.

With `Cn1nnc2c(-c3nc(-c4ccc(F)cc4)cs3)ncn2c1=O` [WW-001, 8-(4-(4-Fluorophenyl)thiazol-2-yl)-3-methylimidazo[5,1-d][1,2,3,5]tetrazin-4(3H)-one], the GI50 with SNB19M is less than 70 µM; in the experiment with SNB19V, less than 45 µM; with U373V, less than 75 µM; in the experiment with U373M, less than 60 µM.

For `Cn1nnc2c(-c3nc(-c4ccccc4)cs3)ncn2c1=O` [WW-002], the GI50 in the experiment on SNB19M is less than 70 µM; in the experiment with SNB19V, less than 45 µM; in the experiment on U373V it was less than 75 µM; in the experiment on U373M it was less than 60 µM.

`CCc1csc(-c2ncn3c(=O)n(C)nnc23)n1` [WW-003, 8-(4-Ethylthiazol-2-yl)-3-methylimidazo[5,1-d][1,2,3,5]tetrazin-4(3H)-one]: the GI50 is less than 70 µM in the experiment on SNB19M, less than 45 µM in the experiment with SNB19V, less than 75 µM in the experiment with U373V and less than 60 µM in the experiment with U373M.

`C#CCn1nnc2c(-c3nc(-c4ccccc4)cs3)ncn2c1=O` [WW-004, 8-(4-phenylthiazol-2-yl)-3-(prop-2-ynyl)imidazo[5,1-d][1,2,3,5]tetrazin-4(3H)-one]: the GI50 in the experiment with SNB19M was less than 70 µM; in the experiment with SNB19V, less than 45 µM; with U373V it was less than 75 µM; with U373M, less than 60 µM.

As for `C#CCNC(=O)c1csc(-c2ncn3c(=O)n(C)nnc23)n1` [WW-005, 2-(3-Methyl-4-oxo-3,4-dihydroimidazo[5,1-d][1,2,3,5]tetrazin-8-yl)-N-(prop-2-ynyl)thiazole-4-carboxamide], the GI50 in the experiment on SNB19M was less than 70 µM; with SNB19V, less than 45 µM; in the experiment with U373V, less than 75 µM; in the experiment with U373M, less than 60 µM.

Turning to `Cn1nnc2c(-c3nc(C#N)cs3)ncn2c1=O` [WW-006, 2-(3-Methyl-4-oxo-3,4-dihydroimidazo[5,1-d][1,2,3,5]tetrazin-8-yl)thiazole-4-carbonitrile], the figures for the GI50 in the experiment on SNB19V, in the experiment on U373V and in the experiment on U373M were less than 45 µM, less than 75 µM and less than 60 µM, respectively.

Turning to `Cn1nnc2c(-c3nc(C(N)=O)cs3)ncn2c1=O` [WW-007, 2-(3-Methyl-4-oxo-3,4-dihydroimidazo[5,1-d][1,2,3, 5]tetrazin-8-yl)thiazole-4-carboxamide], the GI50 in the experiment with SNB19M was less than 70 µM; in the experiment on SNB19V, less than 45 µM; in the experiment on U373V it was less than 75 µM; with U373M, less than 60 µM.

Turning to `Cn1nnc2c(-c3nc(C(=O)NC4CC4)cs3)ncn2c1=O` [WW-008, N-Cyclopropyl-2-(3-methyl-4-oxo-3,4-dihydroimidazo[5,1-d][1,2,3, 5]tetrazin-8-yl)thiazole-4-carboxamide], the GI50 with SNB19M was less than 70 µM; in the experiment on SNB19V, less than 45 µM; in the experiment with U373V, less than 75 µM; in the experiment on U373M, less than 60 µM.

Consider `Cn1nnc2c(-c3nc(C(=O)NC(C)(C)C)cs3)ncn2c1=O` [WW-009, N-tert-Butyl-2-(3-methyl-4-oxo-3,4-dihydroimidazo[5,1-d][1,2,3,5]tetrazin-8-yl)thiazole-4-carboxamide], for which the GI50 with SNB19V was less than 45 µM; with U373V, less than 75 µM; with U373M it was less than 60 µM.

Take `C#CCn1nnc2c(-c3nc(-c4ccc(Br)cc4)cs3)ncn2c1=O` [WW-021]: the GI50 with SNB19M was less than 70 µM; with U373V it was less than 75 µM; with U373M, less than 60 µM.

Regarding `CSCn1nnc2c(-c3nc(-c4ccccc4)cs3)ncn2c1=O` [WW-030, 3-(Methylthiomethyl)-8-(4-phenylthiazol-2-yl)imidazo[5,1-d][1,2,3,5]tetrazin-4(3H)-one], the GI50 is less than 70 µM in the experiment on SNB19M, less than 75 µM in the experiment with U373V and less than 60 µM in the experiment with U373M.

With `COCn1nnc2c(-c3nc(-c4ccc5c(c4)OCO5)cs3)ncn2c1=O` [WW-032], the GI50 in the experiment on SNB19M is less than 70 µM; in the experiment with U373V it was less than 75 µM; in the experiment with U373M, less than 60 µM.

As for `CSCn1nnc2c(-c3nc(-c4cccs4)cs3)ncn2c1=O` [WW-034, 3-(methylthiomethyl)-8-(4-(thiophen-2-yl)thiazol-2-yl)imidazo[5,1-d][1,2,3,5]tetrazin-4(3H)-one], the results for the GI50 with SNB19M, with U373V and in the experiment on U373M were less than 70 µM, less than 75 µM and less than 60 µM, respectively.

Turning to `CSCn1nnc2c(-c3nc(-c4ccsc4)cs3)ncn2c1=O` [WW-035, 3-(methylthiomethyl)-8-(4-(thiophen-3-yl)thiazol-2-1/1)imidazo[5,1-d][1,2,3,5]tetrazin-4(3H)-one], the figures for the GI50 in the experiment on SNB19M, with U373V and in the experiment with U373M were less than 70 µM, less than 75 µM and less than 60 µM, respectively.

Consider `COCn1nnc2c(-c3ncc(-c4ccc(Br)cc4)o3)ncn2c1=O` [WW-039], for which the 50% growth inhibitory concentration (GI50) is less than 70 µM in the experiment on SNB19M, less than 75 µM in the experiment on U373V and less than 60 µM in the experiment with U373M.

As for `C#CCn1nnc2c(-c3ncc(-c4ccccc4)o3)ncn2c1=O` [WW-040], the results for the GI50 in the experiment with SNB19M, in the experiment with U373V and with U373M were less than 70 µM, less than 75 µM and less than 60 µM, respectively.

Take `COCn1nnc2c(-c3nnc(NCc4ccccc4)o3)ncn2c1=O` [WW-046, 8-(5-(Benzylamino)-1,3,4-oxadiazol-2-yl)-3-(methoxymethyl)imidazo[5,1-d][1,2,3,5]tetrazin-4(3H)-one]: the figures for the GI50 in the experiment on SNB19M, with U373V and with U373M were less than 70 µM, less than 75 µM and less than 60 µM, respectively.

What is called GI50 is the concentration giving 50% growth inhibition.
